Data taken from patent publication US12516049B2, “Sulfonylurea ring substituted monocyclic β-lactam antibiotics” (priority 2019, dated 2026).
Values after ≈ are worked out from the molar mass of the structure shown.

Assays:
Type in all cases: cell-based
[1] = tested on: Enterobacter cloacae ATCC BAA-1143 (AmpC); assay: MIC, micro-liquid dilution (CLSI); settings: ATCCBAA1143, E. cloacae ATCC BAA-1143, Class C (AmpC), 20-24 h, 37° C.
Protocol: (§1) Three strains of Klebsiella pneumonia, ATCC BAA-205 (TEM-1/SHV-1/SHV-12), ATCC BAA-1705 (KPC-2), ATCC BAA-2470 (NDM-1), Enterobacter cloacae ATCC BAA-1143 (AmpC), two strains of Escherichia coli ATCC BAA-2523 (OXA-48), ATCC 25922 were used to determine the minimum inhibitory concentration (MIC) of each of the compounds by micro-liquid dilution method according to the Institute of Clinical and Laboratory Standard (CLSI) requirements. […]. The plate was placed upside down at 37° C. and the MIC value was read after 20-24 h of incubation, and the lowest drug concentration that inhibited the growth of bacteria was set as MIC. Colony-Forming Units (CFU) refer to the total number of bacterial colonies per unit volume.

[2] = tested on: Klebsiella pneumonia ATCC BAA-205 (TEM-1/SHV-1/SHV-12); assay: MIC, micro-liquid dilution (CLSI); settings: Klebsiella pneumoniae, ATCCBAA205; K. pneumonia ATCC BAA-205, Class A (TEM-1/SHV-1/SHV-12); 20-24 h, 37° C.
Protocol: as §1

[3] = tested on: Escherichia coli ATCC 25922; assay: MIC, micro-liquid dilution (CLSI); settings: ATCC25922, E. coli ATCC 25922, 20-24 h, 37° C.
Protocol: as §1

[4] = tested on: Escherichia coli ATCC BAA-2523 (OXA-48); assay: MIC, micro-liquid dilution (CLSI); settings: ATCCBAA2523, E. coli ATCC BAA-2523, Class D (OXA-48), 20-24 h, 37° C., read-out: MIC
Protocol: as §1

[5] = tested on: Klebsiella pneumonia ATCC BAA-1705 (KPC-2); assay: MIC, micro-liquid dilution (CLSI); settings: Klebsiella pneumoniae, ATCCBAA1705; K. pneumonia ATCC BAA-1705, Class A (KPC-2); 20-24 h, 37° C.
Protocol: as §1

[6] = tested on: Klebsiella pneumonia ATCC BAA-2470 (NDM-1); assay: MIC, micro-liquid dilution (CLSI); settings: Klebsiella pneumoniae, ATCCBAA2470; K. pneumonia ATCC BAA-2470, Class B (NDM-1); 20-24 h, 37° C.
Protocol: as §1

[7] = tested on: clinically isolated carbapenem-resistant enterobacteriaceae; settings: single drug; panel of 26 strains of Table 2
Protocol: (§2) The minimum inhibitory concentration (MIC) of the compound and combination with β-lactamase (MBLs) inhibitors against clinically isolated carbapenem-resistant enterobacteriaceae was determined by the two-fold agar dilution method to determine the activity of the compound to be tested against strains producing MBLs. […] The mother liquor was diluted to the concentration to be tested by double dilution method, an inoculum liquid was prepared by direct bacterial suspension method, 1 mL of the prepared bacteria solution was withdrawn and putted into the inoculation tube, and a positioning needle and an inoculation needle were installed. A bacterial multi-point inoculator was started for inoculation. After the bacterial solution was absorbed by the agar, the plate was placed upside down in an incubator at 37° C. for 16-20 hours, and the results were observed. The average of three tests was taken.

E.coli 115105 = assay: MIC, two-fold agar dilution, clinical isolate; settings: Escherichia coli, single drug, average of three tests
Protocol: as §2

K.p HX30 = assay: MIC, two-fold agar dilution, clinical isolate; settings: K.p HX30; single drug; average of three tests; read-out: MIC
Protocol: as §2

E.coli 115101 = assay: MIC, two-fold agar dilution, clinical isolate; settings: Escherichia coli; E.coli 115101; single drug; average of three tests; read-out: MIC
Protocol: as §2

E.coli C1569 = assay: MIC, two-fold agar dilution, clinical isolate; settings: Escherichia coli, single drug, average of three tests
Protocol: (§3) The minimum inhibitory concentration (MIC) of the compound and combination with β-lactamase (MBLs) inhibitors against clinically isolated carbapenem-resistant enterobacteriaceae was determined by the two-fold agar dilution method to determine the activity of the compound to be tested against strains producing MBLs. Antibiotics and enzyme inhibitors were weighed separately and dissolved in sterile ultrapure water or dimethyl sulfoxide to prepare mother liquor, MHA medium was prepared, pH was adjusted to 7.2-7.4, and it was sterilized at 121° C. for 15 minutes and placed in a 55° C. water bath for heat preservation. The mother liquor was diluted to the concentration to be tested by double dilution method, an inoculum liquid was prepared by direct bacterial suspension method, 1 mL of the prepared bacteria solution was withdrawn and putted into the inoculation tube, and a positioning needle and an inoculation needle were installed. A bacterial multi-point inoculator was started for inoculation. After the bacterial solution was absorbed by the agar, the plate was placed upside down in an incubator at 37° C. for 16-20 hours, and the results were observed. The average of three tests was taken.

K.p BAA-2470 = assay: MIC, two-fold agar dilution, clinical isolate; settings: K.p BAA-2470; single drug; average of three tests; read-out: MIC
Protocol: as §3

K.p CRE16 = assay: MIC, two-fold agar dilution, clinical isolate; settings: single drug, average of three tests
Protocol: as §3

E.coli CRE18 = assay: MIC, two-fold agar dilution, clinical isolate; settings: Escherichia coli; E.coli CRE18; single drug; average of three tests; read-out: MIC
Protocol: as §3

K.p HX77 = assay: MIC, two-fold agar dilution, clinical isolate; settings: single drug, average of three tests
Protocol: as §3

K.p CRE11 = assay: MIC, two-fold agar dilution, clinical isolate; settings: K.p CRE11; single drug; average of three tests; read-out: MIC
Protocol: as §3

[8] = tested on: Morganella morganii C1274; assay: MIC, two-fold agar dilution, clinical isolate; settings: Morganella morganii C1274; single drug; average of three tests; read-out: MIC
Protocol: as §3

E.coli CRE28 = assay: MIC, two-fold agar dilution, clinical isolate; settings: Escherichia coli; E.coli CRE28; single drug; average of three tests; read-out: MIC
Protocol: as §3

E.coli BAA-2452 = assay: MIC, two-fold agar dilution, clinical isolate; settings: Escherichia coli, BAA2452; E.coli BAA-2452; single drug; average of three tests; read-out: MIC
Protocol: as §3

K.p 090339 = assay: MIC, two-fold agar dilution, clinical isolate; settings: K.p 090339; single drug; average of three tests; read-out: MIC
Protocol: as §3

E.coli 020031 = assay: MIC, two-fold agar dilution, clinical isolate; settings: Escherichia coli, single drug, average of three tests
Protocol: as §3

K.p C904 = assay: MIC, two-fold agar dilution, clinical isolate; settings: K.p C904; single drug; average of three tests; read-out: MIC
Protocol: as §3

K.p 13249 = assay: MIC, two-fold agar dilution, clinical isolate; settings: K.p 13249; single drug; average of three tests; read-out: MIC
Protocol: as §3

K.p 115004 = assay: MIC, two-fold agar dilution, clinical isolate; settings: K.p 115004; single drug; average of three tests; read-out: MIC
Protocol: as §3

E.coli 020033 = assay: MIC, two-fold agar dilution, clinical isolate; settings: Escherichia coli, single drug, average of three tests
Protocol: as §3

E.coli 020028 = assay: MIC, two-fold agar dilution, clinical isolate; settings: Escherichia coli, single drug, average of three tests
Protocol: as §3

K.p 6777 = assay: MIC, two-fold agar dilution, clinical isolate; settings: K.p 6777; single drug; average of three tests; read-out: MIC
Protocol: as §3

E.coli 115103 = assay: MIC, two-fold agar dilution, clinical isolate; settings: Escherichia coli; E.coli 115103; single drug; average of three tests; read-out: MIC
Protocol: as §3

E.coli CRE21 = assay: MIC, two-fold agar dilution, clinical isolate; settings: Escherichia coli; E.coli CRE21; single drug; average of three tests; read-out: MIC
Protocol: as §3

K.p 11544 = assay: MIC, two-fold agar dilution, clinical isolate; settings: K.p 11544; single drug; average of three tests; read-out: MIC
Protocol: as §3

K.p CRE12 = assay: MIC, two-fold agar dilution, clinical isolate; settings: single drug, average of three tests
Protocol: as §3

E.coli CRE23 = assay: MIC, two-fold agar dilution, clinical isolate; settings: Escherichia coli; E.coli CRE23; single drug; average of three tests; read-out: MIC
Protocol: as §3

K.p HX37 = assay: MIC, two-fold agar dilution, clinical isolate; settings: K.p HX37; single drug; average of three tests; read-out: MIC
Protocol: as §3

| SMILES | MIC [1] [µg/mL] | MIC [2] [µg/mL] | MIC [3] [µg/mL] | MIC [4] [µg/mL] | MIC [5] [µg/mL] | MIC [6] [µg/mL] | MIC50 [7] [µg/mL] | MIC (E.coli C1569) [µg/mL] | MIC (K.p BAA-2470) [µg/mL] | MIC (K.p CRE16) [µg/mL] | MIC (E.coli CRE18) [µg/mL] | MIC (K.p HX77) [µg/mL] | MIC (K.p CRE11) [µg/mL] | MIC [8] [µg/mL] | MIC (E.coli CRE28) [µg/mL] | MIC (E.coli BAA-2452) [µg/mL] | MIC (K.p 090339) [µg/mL] | MIC (E.coli 020031) [µg/mL] | MIC (K.p C904) [µg/mL] | MIC (K.p 13249) [µg/mL] | other results |
| --- | --- | --- | --- | --- | --- | --- | --- | --- | --- | --- | --- | --- | --- | --- | --- | --- | --- | --- | --- | --- | --- |
| N=C(N)NC[C@@H]1CN(C[C@@H]2[C@H](NC(=O)/C(=N\OC3(C(=O)O)CC3)c3csc(N)n3)C(=O)N2S(=O)(=O)O)S(=O)(=O)N1 [Compound 5] | 1 (≈ 1.6 µM) | 1 (≈ 1.6 µM) | 0.5 (≈ 0.8 µM) | 0.25 (≈ 0.4 µM) | 1 (≈ 1.6 µM) | 0.5 (≈ 0.8 µM) |  |  |  |  |  |  |  |  |  |  |  |  |  |  |  |
| CC(=O)NC[C@@H]1CN(C[C@@H]2[C@H](NC(=O)/C(=N\OC3(C(=O)O)CC3)c3csc(N)n3)C(=O)N2S(=O)(=O)O)S(=O)(=O)N1 [Compound 6] | 1 (≈ 1.6 µM) | 2 (≈ 3.2 µM) | 4 (≈ 6.4 µM) | 0.25 (≈ 0.4 µM) | 8 (≈ 12.8 µM) | 1 (≈ 1.6 µM) |  |  |  |  |  |  |  |  |  |  |  |  |  |  |  |
| Nc1nc(/C(=N/OC2(C(=O)O)CC2)C(=O)N[C@@H]2C(=O)N(S(=O)(=O)O)[C@@H]2CN2CCOC2=O)cs1 [LYS 228] |  |  |  |  |  |  | 0.5 | 4 | 0.25 | 0.06 | 4 | 0.03 | 0.125 | 0.25 | 4 | 0.5 | 0.25 | 4 | 0.125 | 0.125 | MIC90 [7]: 4 µg/mL; MIC (E.coli 115105): 4 µg/mL; MIC (K.p HX30): 2 µg/mL; MIC (E.coli 115101): 4 µg/mL; MIC (K.p 115004): 0.25 µg/mL; MIC (E.coli 020033): 8 µg/mL; MIC (E.coli 020028): 0.125 µg/mL; MIC (K.p 6777): 1 µg/mL; MIC (E.coli 115103): 8 µg/mL; MIC (E.coli CRE21): 4 µg/mL; MIC (K.p 11544): 0.125 µg/mL; MIC (K.p CRE12): 0.125 µg/mL; MIC (E.coli CRE23): 2 µg/mL; MIC (K.p HX37): 0.5 µg/mL |
| C[C@@H](O)[C@H]1C(=O)N2C(C(=O)O)=C(S[C@@H]3CN[C@H](C(=O)N(C)C)C3)[C@H](C)[C@H]12 [Meropenem] |  |  |  |  |  |  | 16 | 16 | 32 | 8 | 32 | 16 | 32 | 2 | 32 | 16 | 16 | 32 | 16 | 32 | MIC (K.p 115004): 16 µg/mL; MIC (E.coli 020033): 32 µg/mL; MIC (E.coli 020028): 16 µg/mL; MIC (K.p 6777): 8 µg/mL; MIC (E.coli 115103): 16 µg/mL; MIC (E.coli CRE21): 64 µg/mL; MIC (K.p 11544): 16 µg/mL; MIC (K.p CRE12): 16 µg/mL; MIC (E.coli CRE23): 32 µg/mL; MIC (K.p HX37): 32 µg/mL |
